# Data from patent publication EP1276895B1, “METHOD FOR THE IDENTIFICATION OF ACTIVE SITE PROTEASE INACTIVATORS” (THE UNIVERSITY OF GEORGIA RESEARCH FOUNDATION, INC., priority 2000, dated 2001).
# Residues, ends and D or L forms follow the SMILES beside them. *: point of attachment. AFC = O=c1cc(C(F)(F)F)c2ccc(N*)cc2o1; Cbz = O=C(OCc1ccccc1)*; CH2F = FC*
# How the values were obtained:
# Taenia solium crude mix = assay: Competitor assay of vehicles against high Vmax substrate cocktails (Step III), crude mix; assay type: biochemical; conditions: for V Value: V = P * M
# Experimental: Step III for a crude mix proceeds it would for a purified protease, except that Vm is used instead of kcat.
# The experiment began with a competitor test between the noncleaved low Vmax substrates and the highest Vmax substrate, Z-Phe-Arg-AFC. Concentrations were varied between the low Vmax substrate and Z-Phe-Arg-AFC, as described above under "refinement of assay" until a relative inhibition profile was obtained.
# Percent inhibition was calculated as: %Inhibition =; ((AFC positive for"Y"-AFC negative for"Y")-(AFC test-AFC negative for"Y")X100)/(AFC positive for "Y"-AFC negative for "Y") [formula]
# One of the most intriguing findings in this experiment was that a highly similar inhibition pattern for the competitor assay was noted when the crude mix was employed as the source of the target protease. Although there were some variations in the effects of inhibitor dilution, the most highly ranked vehicles remained inhibitory consistently in comparison to the profile with the target protease. The relative profile and composition of the top tiers of vehicles was identical. Z-LLL-AFC, Z-LLY-AFC, Mu-LY-AFC, Boc-VPR-AFC, Z-SY-AFC, Z-RR-AFC, Z-FLF-AFC, Z-LGR-AFC consistently presented as the top eight vehicles (Fig. 5b), respectively, based upon their V values (Table 2). […] It was notable that the three vehicles had very similar V values. […] As was mentioned, this vehicle along with Z-LLL-AFC and Z-LLY-AFC, were consistently the most inhibitory vehicles. The V values of the most inhibitory vehicle series are shown below in Table 2. Again, a clear break between the first and second tier vehicles could be noted with the V value. Table 2. Vehicles and V value rankings.
# [1] = tested on: purified Taenia solium cysteine protease; assay: Competitor assay of low Vmax substrates (vehicles) against high Vmax substrate cocktails (Step III), purified protease; assay type: biochemical; conditions: robustness of inhibition
# [2] = tested on: purified Taenia solium cysteine protease; assay: Inhibition assay of protease inactivators against the high Vmax cocktail, EC100 and Ki ranking (Step VII B); assay type: biochemical; conditions: for ranking of protease inactivators by EC100: dilution study, nanomolar levels; for % Inhibition of T. solium CP in vitro: concentration not stated in Table 4; for Ki of protease inactivator: nonlinear fitting and Dixon plot, values not reported
# Description: Once the protease inactivators were synthesized in the organic laboratory, they were to be tested for the lowest efficacious concentrations at which they induced 100% inhibition of the target protease (EC100). The top percent cocktail that was employed in the final vehicle selection step of Step III was employed as the source of competition for the inhibitors. In this case, this was the […] which was comprised of Z-FR-AFC, Z-FAR-AFC, Z-AP-AFC, Z-AAK-AFC, and Z-VLR-AFC. The final result would be a ranking of transition state candidate protease inactivators with a high ranking directly correlating to a low EC100 value. The following steps describe the assay:
# Step A: Initial Screening. To set up the test control, each protease inactivator was first incubated with the […] (which provided the final differentiation of vehicles in Step III). To begin with, the protease inactivator was incubated at a concentration of 3 X 10^-9M in 500 ul of assay buffer ([…], pH 4.9 supplemented with 10mM L-cysteine). This concentration was determined, after a series of inhibitor dilutions identified, to be the best inhibitor concentration at which a differentiation in inhibitor potential could be noted. Next, a concentration equal to 4 X 10^-5M for each of the individual cocktail components, was added to the mix. The components were allowed to equilibrate for a period of 30 minutes. Finally, active purified enzyme was added to the tubes at a concentration which was always at least 50 times less than the concentration of the lowest concentration in the mix (to provide saturating conditions.) This concentration varied from purification to purification and the amount added depended upon the yield and specific activity of the purified protease.
# Positive controls were set up similarly as described for test controls, except that solvent was added in substitution for the protease inactivator (in a volume equal to the […] volume addition). All of the protease inactivators could be dissolved in dimethylsulfoxide (DMSO), and therefore, this was the solvent of choice. Negative controls were set up by adding the protease inactivator and the cocktail substrates in a tube, without the protease. All potential non-proteolytic induced liberation of AFC was therefore controlled for in this tube (a feature which also insured stability of the AFC substrates, since these substrates will freely liberate AFC when unstable).
# All controls were set up in triplicate, and experiments repeated a minimum of five times. The assays were incubated at 37°C, overnight. Percent inhibition was calculated as: % Inhibition = ((AFC positive for ʺSIʺ-AFC negative for ʺSIʺ)-(AFC test-AFC negative for ʺSIʺ))/(AFC positive for ʺSIʺ-AFC negative for ʺSIʺ) × 100 [formula]
# Because of this, a dilution study was required in order to determine a viable ranking. Thus, the concentration of each of the protease inactivators was lowered with a dose response setup until the most efficacious concentration for 100% inhibition (EC100) could be determined. […] The final result of the assay was a ranked candidate list of protease inactivators. A lower EC100 was attributable to a higher ranking and vice-versa.
# In order to determine Ki, all of the high Vmax cocktail substrates were employed for Ki determination (since Ki of the inhibitor for the enzyme is the same regardless of the substrate). To insure the highest accuracy, Ki was to be determined upon a minimum of at least three of the high Kcat substrates. Nonlinear fitting and the Dixon plot were both employed to determine Ki of the top ranked protease inactivators. A further plot was constructed using either Eadie Hofstee as well as Hanes to determine the mode of inhibition. These methods were used in order to determine the type of inhibition.
# Taenia crassiceps cysts = assay: Short-term prophylactic protection of BALB/c mice from cysticercosis infection; assay type: in vivo; conditions: for % Prophylactic protection of BALB/c mice: pre-injected two days, 10 T. crassiceps cysts/mouse, dosed daily for four weeks, cysts counted after one month, versus untreated controls
# T. crassiceps cysts [3] = assay: Therapeutic protection study in BALB/c mice; assay type: in vivo, Taenia crassiceps; conditions: inhibitor treatment began two weeks after infection with T. crassiceps cysts
# Description: Mice in all groups survived without noticeable side effects (e.g., coat condition, tail dragging or paresis, etc).
# T. crassiceps cysts [4] = assay type: in vivo, Taenia crassiceps; conditions: for Percent protection, long-term: BALB/c mice, 5 mice/group, intraperitoneal, treated every day for 30 days post-challenge, left untreated for 5 months, reduction of total cyst number versus controls; for side effects in treated mice, long-term: in vivo
# [5] = tested on: normal BALB/c mouse splenocytes; assay: Mouse splenocyte proliferation (3H-thymidine incorporation) with inhibitor alone or inhibitor and Con-A; assay type: cell-based; conditions: for proliferative response of splenocytes (3H-thymidine incorporation): inhibitor alone; for responsiveness of splenocytes to Con-A: inhibitor and Con-A; for toxicity to normal BALB/c mouse splenocytes in vitro: preliminary results
Molecule,Tier (Taenia solium crude mix),V Value (Taenia solium crude mix),ranking of protease inactivators by EC100 [2],% Inhibition of T. solium CP in vitro [2] [%],Ki of protease inactivator [2],% Prophylactic protection of BALB/c mice (Taenia crassiceps cysts),"Percent protection, long-term (T. crassiceps cysts [4]) [%]","side effects in treated mice, long-term (T. crassiceps cysts [4])",proliferative response of splenocytes (3H-thymidine incorporation) [5],responsiveness of splenocytes to Con-A [5],toxicity to normal BALB/c mouse splenocytes in vitro [5],also measured
"CC(C)C[C@H](NC(=O)OCc1ccccc1)C(=O)N[C@@H](CC(C)C)C(=O)N[C@@H](CC(C)C)C(=O)Nc1ccc2c(C(F)(F)F)cc(=O)oc2c1 [Z-LLL-AFC, Z-Leu-Leu-Leu-AFC] (Cbz-Leu-Leu-Leu-{AFC})","1 (The first tier was composed of those vehicles, which produced inhibition greater than 50% when in the presence of the 1.4% cocktail)",0.611,,,,,,,,,,percentage drop in inhibition between the 1.4% and the 7.4% cocktail [1]: 25%
"CC(C)C[C@H](NC(=O)[C@H](CC(C)C)NC(=O)[C@H](CC(C)C)NC(=O)OCc1ccccc1)C(=O)CF [Z-LLL-FMK, Z-Leu-Leu-Leu-fluoromethylketone] (Cbz-Leu-Leu-Leu-CH2F)",,,top inhibitors,100,lowest Ki values,100%,80,no side effects were noted,do not induce a proliferative response,unaffected,nontoxic,% Prophylactic protection of BALB/c mice (Taenia crassiceps cysts; listed as Leucine-Leucine-Leucine-Fluoromethylketone): 100%; % Therapeutic protection of BALB/c mice (T. crassiceps cysts [3]): 60%; responsiveness of splenocytes to Con-A ([5]; listed as LLL-FMK): do not affect the responsiveness
"CC(C)C[C@H](NC(=O)OCc1ccccc1)C(=O)N[C@@H](CC(C)C)C(=O)N[C@@H](Cc1ccc(O)cc1)C(=O)Nc1ccc2c(C(F)(F)F)cc(=O)oc2c1 [Z-LLY-AFC, Z-Leu-Leu-Tyr-AFC] (Cbz-Leu-Leu-Tyr-{AFC})","1 (The first tier was composed of those vehicles, which produced inhibition greater than 50% when in the presence of the 1.4% cocktail)",0.55,,,,,,,,,,
"CC(C)C[C@H](NC(=O)OCc1ccccc1)C(=O)N[C@@H](CC(C)C)C(=O)N[C@@H](Cc1ccc(O)cc1)C(=O)CF [Z-LLY-FMK, Z-Leu-Leu-Tyr-FMK] (Cbz-Leu-Leu-Tyr-CH2F)",,,top inhibitors,97,lowest Ki values,85-97%,95,no side effects were noted,do not induce a proliferative response,unaffected,nontoxic,"protection from cysticercosis infection, subsequent repeat of the prophylactic experiment (Taenia crassiceps cysts; identical prophylactic experiment repeated): 75%-90%; % Prophylactic protection of BALB/c mice (Taenia crassiceps cysts; listed as Leucine-Leucine-Tyrosine-Fluoromethylketone): 85-97%; side effects / inhibitor toxicity in treated mice, short-term (Taenia crassiceps cysts; visual inspection (coat condition, tail dragging or paresis)): no mice showed effects of inhibitor toxicity; responsiveness of splenocytes to Con-A ([5]; listed as LLY-FMK): do not affect the responsiveness"
Mu-Leu-Tyr-AFC [Mu-LY-AFC],"1 (The first tier was composed of those vehicles, which produced inhibition greater than 50% when in the presence of the 1.4% cocktail)",0.45,,,,,,,,,,
